Here are results for eleven compounds from ChEMBL document CHEMBL1201862, “PubChem BioAssay data set” (2004).

Test systems include ACHN; BT-549; COLO 205; HCC 2998; HL-60; HOP-92; Hs-578T; K562; LOX IMVI; MCF7; MDA-N; MOLT-4; NCI/ADR-RES; OVCAR-5; SF-295; SK-MEL-2; T47D; RXF 393; SF-268.
Common to all, as to test: growth of human tumour cells (NCI), 48 h

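96-well plates; 48 h exposure; 5 concentrations. Endpoints by linear interpolation between flanking doses. Not reached: highest tested concentration assigned. Abbreviation: GI50, concentration required for 50% inhibition of growth.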 Active and inactive are the calls of the source. Rule as the data show it: active = GI50 up to about 1.1 µM and inactive = higher. A value given as a limit tells only on which side of the number the result lay.

Take `COc1ccc(S(=O)(=O)NC(CCC(=O)NC(N)=O)C(=O)NC(N)=O)cc1` (stereo not given): the GI50 in the test with ACHN is > 100 µM (inactive); in the test on BT-549, > 100 µM (inactive); with COLO 205 it was > 100 µM (inactive); in the test with HCC 2998 it was > 100 µM (inactive); in the test on HL-60, 74.5 µM (inactive); with HOP-92 it was > 100 µM (inactive). The GI50 with Hs-578T, in the test on K562, with LOX IMVI, in the test on MCF7, with MDA-N and in the test with MOLT-4 was > 100 µM (inactive) each time. Moreover, the GI50 in the test with NCI/ADR-RES, with OVCAR-5, with SF-295, in the test on SK-MEL-2 and in the test on T47D was > 100 µM (inactive) throughout.

For `C1CC2CN(CCCN3CCOCC3)C(C1)O2` (stereo not given), the GI50 with ACHN, in the test with BT-549, with COLO 205, in the test with HL-60, in the test on HOP-92 and in the test on Hs-578T was > 100 µM (inactive) each time. Moreover, the GI50 in the test with K562, in the test with LOX IMVI, in the test with MCF7, with MDA-N, in the test on MOLT-4 and with NCI/ADR-RES was > 100 µM (inactive) each time. In addition, the GI50 in the test on OVCAR-5, in the test on RXF 393, in the test on SF-268, in the test on SF-295, with SK-MEL-2 and with T47D was > 100 µM (inactive) each time.

As for `N#C/C(=C(\O)C(=O)O)c1ccc(-c2cccc3ccccc23)cc1`, the GI50 is > 100 µM (inactive) in the test with ACHN; > 100 µM (inactive) in the test on BT-549; > 100 µM (inactive) with COLO 205; 19.5 µM (inactive) with HL-60; > 100 µM (inactive) in the test on HOP-92; > 100 µM (inactive) with Hs-578T. Moreover, the GI50 in the test on K562 was 2.65 µM (inactive); with LOX IMVI, > 100 µM (inactive); in the test on MCF7, > 100 µM (inactive); in the test with MDA-N, > 100 µM (inactive); with MOLT-4 it was 1.51 µM (inactive); with NCI/ADR-RES it was > 100 µM (inactive). Further, the GI50 in the test with OVCAR-5, in the test with RXF 393, in the test with SF-268, in the test on SF-295, in the test with SK-MEL-2 and in the test on T47D was > 100 µM (inactive) in each case.

Turning to `O=C1CCCC(=O)N1n1c(Cc2ccc(Cl)cc2)n[nH]c1=O`, the GI50 in the test on ACHN, in the test on BT-549, in the test on COLO 205, with HCC 2998, with HL-60 and with Hs-578T was > 100 µM (inactive) throughout. The GI50 in the test with K562, in the test with LOX IMVI, in the test with MCF7, with MDA-N, in the test with MOLT-4 and in the test with NCI/ADR-RES was > 100 µM (inactive) in each case. In addition, the GI50 in the test with OVCAR-5, with RXF 393, with SF-268, with SF-295, with SK-MEL-2 and in the test with T47D was > 100 µM (inactive) in each case.

`Cc1cc(Cc2cc(C)cc(C(C)(C)C)c2O)c(O)c(Cc2cc(C)cc(C(C)(C)C)c2O)c1`: the GI50 in the test on ACHN was 3.37 µM (inactive); with BT-549 it was 1.87 µM (inactive); in the test with COLO 205 it was 4.53 µM (inactive); in the test with HL-60, 2.51 µM (inactive); in the test on HOP-92, 2.24 µM (inactive); with Hs-578T, 1.67 µM (inactive). The GI50 in the test with K562 is 0.931 µM (active); in the test on LOX IMVI it was 3.1 µM (inactive); in the test on MCF7 it was 2.34 µM (inactive); in the test with MDA-N, 3.66 µM (inactive); in the test with MOLT-4, 1.41 µM (inactive); in the test on NCI/ADR-RES, 2.85 µM (inactive). Besides, the GI50 in the test with OVCAR-5 was 3.48 µM (inactive); in the test with RXF 393, 2.82 µM (inactive); in the test with SF-268 it was 1.7 µM (inactive); in the test with SF-295 it was 3.18 µM (inactive); in the test on SK-MEL-2 it was 2.16 µM (inactive); with T47D it was 3.01 µM (inactive).

`CC(C(=O)c1ccccc1)C(c1ccccc1)N1CCOCC1` (stereo not given): the GI50 with ACHN is > 100 µM (inactive); with BT-549, > 100 µM (inactive); in the test on COLO 205, > 100 µM (inactive); in the test on HL-60 it was 49.1 µM (inactive); with HOP-92, > 100 µM (inactive); in the test with Hs-578T, > 100 µM (inactive). The GI50 is > 100 µM (inactive) in the test on K562; > 100 µM (inactive) with LOX IMVI; > 100 µM (inactive) with MCF7; > 100 µM (inactive) with MDA-N; 66.8 µM (inactive) with MOLT-4; > 100 µM (inactive) with NCI/ADR-RES. Also, the GI50 in the test with OVCAR-5, in the test with RXF 393, in the test on SF-268, in the test on SF-295, with SK-MEL-2 and with T47D was > 100 µM (inactive) throughout.

As to `COC(=O)/C=c1/c2ccccc2n2nc3ccccc3c12`, the GI50 with ACHN was > 100 µM (inactive); in the test on BT-549 it was > 100 µM (inactive); in the test on COLO 205, 27.6 µM (inactive); in the test with HCC 2998, 62.5 µM (inactive); in the test with HL-60, 45 µM (inactive); in the test with Hs-578T, 52 µM (inactive). The GI50 was 51.4 µM (inactive) with K562; 36.9 µM (inactive) in the test with LOX IMVI; 42.6 µM (inactive) in the test on MCF7; 30.8 µM (inactive) in the test on MDA-N; 6.01 µM (inactive) in the test with MOLT-4; 30.8 µM (inactive) with NCI/ADR-RES. Moreover, the GI50 in the test with OVCAR-5 is > 100 µM (inactive); with RXF 393 it was 34 µM (inactive); in the test with SF-268 it was 49.9 µM (inactive); in the test with SF-295 it was > 100 µM (inactive); in the test with SK-MEL-2 it was 74.6 µM (inactive); in the test on T47D it was > 100 µM (inactive).

Take `Cc1cnc2sn(-c3ccc(Br)cc3)c(=O)c2c1`: the GI50 in the test with ACHN is 35.6 µM (inactive); in the test on BT-549, 35 µM (inactive); in the test with COLO 205 it was 26.8 µM (inactive); in the test on HCC 2998 it was 22.7 µM (inactive); in the test on HL-60, 18.3 µM (inactive); with HOP-92, 26.9 µM (inactive). Moreover, the GI50 in the test on Hs-578T was 30.7 µM (inactive); in the test on LOX IMVI it was 23.3 µM (inactive); with MCF7, 30.3 µM (inactive); in the test on MDA-N it was > 100 µM (inactive); in the test with MOLT-4 it was 30.4 µM (inactive); in the test with NCI/ADR-RES, 70.1 µM (inactive). The GI50 in the test with OVCAR-5 was 44.2 µM (inactive); in the test on SF-268 it was 38.7 µM (inactive); in the test with SF-295, 26.5 µM (inactive); in the test on SK-MEL-2, > 100 µM (inactive); with T47D it was 13.4 µM (inactive).

For the compound `C/C(=N\c1ccc(N(C)C)cc1)c1ccccc1`, the GI50 in the test on ACHN is 26.2 µM (inactive); with BT-549, 18.9 µM (inactive); in the test on COLO 205 it was 17.8 µM (inactive); in the test on HCC 2998 it was 44.6 µM (inactive); with HL-60, 16.4 µM (inactive); in the test with Hs-578T, 22.1 µM (inactive). Besides, the GI50 in the test on K562 is 21.3 µM (inactive); in the test on MCF7 it was 21.9 µM (inactive); in the test on MDA-N, 21.9 µM (inactive); in the test on MOLT-4, 23.9 µM (inactive); in the test with NCI/ADR-RES, 27 µM (inactive); in the test on OVCAR-5, > 100 µM (inactive). Further, the GI50 in the test with RXF 393 was 5.35 µM (inactive); in the test with SF-268 it was > 10 µM (inactive); in the test with SF-295 it was 31.9 µM (inactive); in the test with SK-MEL-2, 11.2 µM (inactive); in the test on T47D it was 21.7 µM (inactive).

As to `Cc1ccc(-c2cc(C(F)(F)F)nn2-c2ccc(S(N)(=O)=O)cc2)cc1` [CELECOXIB], the GI50 is 17.5 µM (inactive) in the test with ACHN; 18.5 µM (inactive) in the test on BT-549; 16.1 µM (inactive) with COLO 205; 15.7 µM (inactive) in the test with HCC 2998; 14.8 µM (inactive) in the test with HL-60; 18.5 µM (inactive) in the test with Hs-578T. For the same compound, the GI50 in the test on K562 is 10.1 µM (inactive); in the test on LOX IMVI, 18.2 µM (inactive); with MCF7 it was 17.5 µM (inactive); in the test on MDA-N, 17.1 µM (inactive); in the test on MOLT-4 it was 17.3 µM (inactive); with NCI/ADR-RES, 16.2 µM (inactive). The GI50 in the test on OVCAR-5 is 19.7 µM (inactive); in the test with RXF 393 it was 17.1 µM (inactive); with SF-268, 16.9 µM (inactive); in the test with SF-295 it was 16.6 µM (inactive); in the test on SK-MEL-2, 16.1 µM (inactive); in the test on T47D, 16.8 µM (inactive).

Consider `CCSc1nnc2c(-c3ccccc3)n[nH]c2n1`, for which the GI50 was > 100 µM (inactive) in the test on ACHN; > 100 µM (inactive) with BT-549; > 100 µM (inactive) with COLO 205; > 100 µM (inactive) in the test with HL-60; 37.4 µM (inactive) with HOP-92; 30.4 µM (inactive) with Hs-578T. Also, the GI50 in the test on K562, with LOX IMVI, with MCF7, in the test on MDA-N, in the test on MOLT-4 and in the test on NCI/ADR-RES was > 100 µM (inactive) in each case. In addition, the GI50 in the test on OVCAR-5 is > 100 µM (inactive); in the test on RXF 393, > 100 µM (inactive); with SF-268 it was 49.1 µM (inactive); in the test with SF-295, 31 µM (inactive); in the test on SK-MEL-2, > 100 µM (inactive); in the test with T47D it was > 100 µM (inactive).
